# Laboratory results published in patent US20070161592A1, “Method of treating fear” (priority 2005, published 2007).
# Key:
# [1] = system: pyramidal neurons in layer II/III of ACC slices; test: LTP induced by pairing training, whole-cell patch-clamp recordings in ACC slices; type: cell-based, mouse; conditions: for effect on LTP induced by pairing training: FIG. 3
# Protocol: Experiments were performed in a recording chamber on the stage of an Axioskop 2FS microscope with infrared DIC optics for visualizing whole-cell patch clamp recordings. EPSCs were recorded from layer II-III neurons using an Axon 200B amplifier (Axon Instruments, CA) and stimulations were delivered using a bipolar tungsten stimulating electrode placed in layer V of the ACC. In hippocampal slices, EPSCs were evoked by stimulating the Schaffer collateral-commissural pathway. EPSCs were induced by repetitive stimulations at 0.02 Hz and neurons were voltage clamped at −70 mV. […] The first protocol involved paired presynaptic 80 pulses at 2 Hz with postsynaptic depolarization at +30 mV (referred to as pairing training). The second involved paired 3 presynaptic stimuli that caused 3 EPSPs (10 ms ahead) with 3 postsynaptic APs at 30 Hz, paired 15 times every 5 s (named as EPSPs-APs protocol). The third involved theta-burst stimulation (5 trains of burst with 4 pulses at 100 Hz, at 200 ms interval; repeated 4 times at intervals of 10 s; named as TBS). The NMDAR-mediated component of EPSCs was pharmacologically isolated in Mg^2+-free ACSF containing: CNQX (20 μM), glycine (1 μM) and picrotoxin (100 μM). […] Neurons were voltage clamped at −60 mV and NMDARs-mediated EPSCs were evoked at 0.05 Hz. Picrotoxin (100 μM) was always present to block GABAA receptor-mediated inhibitory synaptic currents. The access resistance was 15-30 MΩ and was monitored throughout the experiment. […] Results are expressed as means±SEM. Statistical comparisons were performed using the Student t-test.
# Whole-cell patch-clamp recordings were conducted in visually identified pyramidal neurons in layer II/III of ACC slices. Pyramidal neurons were identified by injecting depolarized currents into neurons to induce action potentials. […] Pyramidal neurons were also identified based on the pyramid shape of their somata by putting Lucifer yellow into the intracellular solution (FIG. 1A).
# [2] = system: NMDAR-mediated currents in the ACC; test: NMDAR-mediated EPSCs in the ACC; type: cell-based, mouse
# Protocol: Coronal brain slices ([…]) from 6-8-week-old C57BL/6 mice, containing ACC or hippocampus, were prepared using standard methods (Wei et al., 2001). Slices were transferred to a submerged recovery chamber containing oxygenated (95% O2 and 5% CO2) artificial cerebrospinal fluid (ACSF) (in mM: 124 NaCl, 4.4 KCl, 2 CaCl2, 1 MgSO4, 25 NaHCO3, 1 NaH2PO4, 10 glucose) at room temperature for at least 1 h.
# Experiments were performed in a recording chamber on the stage of an Axioskop 2FS microscope with infrared DIC optics for visualizing whole-cell patch clamp recordings. EPSCs were recorded from layer II-III neurons using an Axon 200B amplifier (Axon Instruments, CA) and stimulations were delivered using a bipolar tungsten stimulating electrode placed in layer V of the ACC. In hippocampal slices, EPSCs were evoked by stimulating the Schaffer collateral-commissural pathway. EPSCs were induced by repetitive stimulations at 0.02 Hz and neurons were voltage clamped at −70 mV. The recording pipettes (3-5 MΩ) were filled with solution containing (mM) 145 K-gluconate, 5 NaCl, 1 MgCl2, 0.2 EGTA, 10 HEPES, 2 Mg-ATP, and 0.1 Na3-GTP (adjusted to pH 7.2 with KOH). After obtaining stable EPSCs for 10 min, three kinds of LTP induction paradigms were used within 12 min after establishing the whole-cell configuration to prevent wash out effect on LTP induction (Tsvetkov et al., 2002). The first protocol involved paired presynaptic 80 pulses at 2 Hz with postsynaptic depolarization at +30 mV (referred to as pairing training). The second involved paired 3 presynaptic stimuli that caused 3 EPSPs (10 ms ahead) with 3 postsynaptic APs at 30 Hz, paired 15 times every 5 s (named as EPSPs-APs protocol). The third involved theta-burst stimulation (5 trains of burst with 4 pulses at 100 Hz, at 200 ms interval; repeated 4 times at intervals of 10 s; named as TBS). The NMDAR-mediated component of EPSCs was pharmacologically isolated in Mg^2+-free ACSF containing: CNQX (20 μM), glycine (1 μM) and picrotoxin (100 μM). The patch electrodes contained (in mM) 102 cesium gluconate, 5 TEA-chloride, 3.7 NaCl, 11 BAPTA, 0.2 EGTA, 20 HEPES, 2 MgATP, 0.3 NaGTP, and 5 QX-314 chloride (adjusted to pH 7.2 with CsOH). Neurons were voltage clamped at −60 mV and NMDARs-mediated EPSCs were evoked at 0.05 Hz. Picrotoxin (100 μM) was always present to block GABAA receptor-mediated inhibitory synaptic currents. The access resistance was 15-30 MΩ and was monitored throughout the experiment. Data were discarded if access resistance changed by more than 15% during an experiment. Results are expressed as means±SEM. Statistical comparisons were performed using the Student t-test.
# One possible mechanism is that NR2B-containing receptors may contribute more to total NMDA currents in ACC synapses than in hippocampal synapses. […] Application of 0.1 μM or 0.4 μM NVP-AAM077 depressed total NMDAR-mediated currents by 59.0±4.3% (n=5) and 63.2±1.7% (n=6) in the ACC respectively (FIG. 5). On the other hand, application of 0.3 μM or 3 μM Ro25-6981 attenuated total NMDAR-mediated currents by 18.0±1.9% (n=5) and 18.1±3.4% (n=7) in the ACC respectively, showing that 0.3 μM Ro25-6981 was sufficient to block the NR2B-mediated currents (FIG. 5). This experiment was repeated in hippocampal CA1 neurons. […] However, unlike in the ACC, application of 0.3 μM Ro25-6981 alone potentiated, rather than blocked, total NMDAR-mediated currents by 51.3±16.4% in the hippocampus (FIG. 5).
# The relative percentages of NR2A- and NR2B-mediated currents were determined by applying specific antagonists, NVP-AAM077 (0.4 μM) and Ro25-6981 (0.3 μM). The concentrations used here were based on the results from FIG. 5 and a recent study performed in the hippocampus (Liu et al., 2004). Application of NVP-AAMO77 depressed total NMDAR-mediated currents by 63.2±1.7% and the addition of Ro25-6981 to the same neuron further reduced currents by 13.7±1.4% (n=6) in the ACC (FIG. 6). […]
smiles,measurement,setting,value
C[C@@H](CN1CCC(Cc2ccccc2)CC1)[C@@H](O)c1ccc(O)cc1 [Ro25-6981],"synaptic responses after pairing training (LTP), % of baseline",[1]; 0.3 μM,132.8±7.4%
same,effect on LTP induced by pairing training,[1]; 0.3 μM,partially depressed
same,"synaptic responses after pairing training (LTP), % of baseline",[1]; 3 μM,126.8±7.5%
same,effect on LTP induced by pairing training,[1]; 3 μM,partially depressed
same,further reduction of total NMDAR-mediated currents,[2]; 0.3 μM Ro25-6981 added to the same neuron after 0.4 μM NVP-AAM077,13.7±1.4%
same,depression of total NMDAR-mediated currents,"[2]; 0.3 μM, applied alone or first",18.0±1.9%
same,depression of total NMDAR-mediated currents,[2]; 3 μM,18.1±3.4%
same,effect on total NMDAR-mediated currents,"[2]; bath application of different doses, FIG. 5",depressed
